Tested on: continuously hydrated rats
Assay: Antidiuresis test in continuously hydrated rats with additional water loading (oral administration)
Assay type: in vivo, rat
Conditions: for urine production after additional water loads: groups with additional water loads (15 mL/kg at two and three hours after administration); for urine production after additional water loads / urine production: FIG. 1; for urine production: groups without additional water loads, two hours after administration, maintained until four hours; for change in plasma sodium level (in words): three hours and four hours after administration, additional water loads
Description: Male Wistar rats were used in the test. Initially, water load with 15 mL/kg of distilled water was forcedly administered to the rats. Every 30 minutes after loading water, urine volume collected during 30 minutes was measured and distilled water was forcedly administered to the rats in an amount equal to the urine volume excreted during the last 30 minutes. This water load procedure was repeated to the termination of the test to maintain the diuretic state. […] The individual groups were further divided into two subgroups, and additional distilled water of 15 mL/kg load was forcedly administered to one of the subgroups two times, i.e. at two hours and three hours after the administration. For comparison, the Vehicle group administered only with the vehicle was also subjected to the additional administrations of water load. Blood was collected from a half of the rats in each group subjected to additional administrations of water load, at three hours after the administration (immediately before the second additional water load) and from the other half at four hours after the administration, and plasma sodium levels were measured with an automatic electrolyte analyzer to determine the plasma sodium levels at three hours and four hours after the administration, respectively (each group consisted of seven to eight rats). Changes in the urine volume in individual groups are shown in FIG. 1, and the plasma sodium levels of the group administered with additional water loads are shown in Table 4.

change in plasma sodium level (in words)	Compound	urine production after additional water loads	urine production
slightly decreased	CCSC[C@H](N)[C@](O)(Cc1cc(O[C@H]2CC[C@H](C)CC2)ccn1)C(=O)O [EX-b, (2R,3R)-3-amino-4-(ethylsulfanyl)-2-hydroxy-2-({4-[(trans-4-methylcyclohexyl)oxy]pyridin-2-yl}methyl)butanoic acid]	resumed after administration of the additional water loads	almost stopped
slightly decreased	CC(C)C[C@H](N)[C@](O)(Cc1cc(O[C@H]2CC[C@H](C)CC2)ccn1)C(=O)O (relative stereo) [EX-a]	resumed after administration of the additional water loads	almost stopped

Compound	change in plasma sodium level (in words)	urine production after additional water loads	urine production
NC(=O)CC[C@@H]1NC(=O)[C@H](Cc2ccccc2)NC(=O)[C@H](Cc2ccc(O)cc2)NC(=O)CCSSC[C@@H](C(=O)N2CCC[C@H]2C(=O)N[C@H](CCCN=C(N)N)C(=O)NCC(N)=O)NC(=O)[C@H](CC(N)=O)NC1=O [dDAVP, Desmopressin, reference compound]	more significant decreases	urine production was not resumed	almost stopped

Source: patent publication US10975091B2, “Pyridine derivative” (Astellas Pharma Inc., priority 2014, dated 2021)
